Tests used:
Ctenocephalides felis [1] = experiment: Ctenocephalides felis - in vitro contact tests with adult cat fleas; format: in vivo; conditions: application rate 5 μg/cm2 (=500 g/ha); after 48 h; fleas dead or moribund
How it was run: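 Tubes coated with compound in acetone (250 μl of 900 ppm solution gives 5 μg/cm^2 on 44.7 cm^2), solvent evaporated, then 5–10 adult fleas added and kept horizontal at room temperature and ambient humidity. After 48 h, dead or moribund (motionless/uncoordinated) fleas scored as % efficacy.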

Myzus persicae = Myzus persicae - spray test; format: in vivo; conditions: Chinese cabbage leaf discs, after 6 days
How it was run: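 Chinese cabbage leaf discs carrying all stages of Myzus persicae sprayed with compound in acetone/DMF diluted in water with 1000 ppm emulsifier. Efficacy (% aphids killed) assessed after 6 days.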

Rhipicephalus sanguineus = Rhipicephalus sanguineus - in vitro contact tests with adult brown dog ticks; format: in vivo; conditions: application rate 5 μg/cm2; after 48 h; ticks dead or moribund
How it was run: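 Test tubes coated with active ingredient in acetone, 5 μg/cm^2 at 900 ppm. 5-10 adult ticks per tube, kept dark at room temperature for 48 h. Ticks then heated at 45-50° C ≤5 min; motionless or uncoordinated ticks scored dead/moribund, efficacy as % dead or moribund.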

Amblyomma hebraeum = experiment: Amblyomma hebaraeum test (tick nymphs, immersion); format: in vivo; conditions: application rate 100 ppm; tick nymphs immersed one minute; after 42 days
Experimental: Solvent: dimethyl sulphoxide
To produce an appropriate active ingredient formulation, 10 mg of active ingredient are mixed with 0.5 ml of dimethyl sulphoxide, and the concentrate is diluted with water to the desired concentration.
Tick nymphs (Amblyomma hebraeum) are placed into perforated plastic beakers and immersed in the desired concentration for one minute. The ticks are transferred on filter paper into a Petri dish and stored in a climate-controlled cabinet.
After 42 days, the kill in % is determined. 100% means that all of the ticks have been killed; 0% means that none of the ticks have been killed.

[2] = logP determination by HPLC on a reversed-phase column (C18); format: physicochemical; conditions: for logP: HPLC, C18 reversed phase, acetonitrile/water with formic acid, EEC Directive 79/831 Annex V.A8; for logP^a): HPLC-MS method a); for log P: HPLC-MS
Boophilus microplus = Boophilus microplus - injection test; format: in vivo; conditions: application rate 20 μg/animal, injection into engorged adult female ticks, after 7 days
How it was run: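 Active ingredient in DMSO, 1 μl injected into the abdomen of 5 engorged adult female ticks, then held in a climate-controlled room. Efficacy scored after 7 days from laying of fertile eggs, with non-fertile-looking eggs kept about 42 days for larval hatch; 100% means no fertile eggs.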

[3] = tested on: Boophilus microplus Parkhurst strain, SP-resistant; experiment: Boophilus microplus - dip test; format: in vivo; conditions: application rate 100 ppm; dip of engorged adult female ticks; after 7 days
How it was run: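 SP-resistant Parkhurst strain engorged adult female Boophilus microplus (8-10 per tube) dipped in DMSO-based compound dilutions in water, then kept in a climate-controlled room. Efficacy scored after 7 days from fertile egg laying, with larval hatch checked after about 42 days; 100% means no fertile eggs.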

Spodoptera frugiperda = Spodoptera frugiperda - spray test; format: in vivo; conditions: caterpillars on maize leaf discs, after 7 days
How it was run: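 Maize leaf discs sprayed with compound formulated in acetone/DMF and diluted in water containing 1000 ppm alkylaryl polyglycol ether emulsifier, then infested with armyworm caterpillars after drying. Efficacy scored after 7 days as % caterpillars killed (100% all, 0% none).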

Tetranychus urticae = Tetranychus urticae - spray test, OP-resistant; format: in vivo; conditions: bean leaf discs, after 6 days
How it was run: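 Compound dissolved in acetone/DMF, diluted with water containing 1000 ppm alkylaryl polyglycol ether emulsifier to test concentrations. Bean leaf discs infested with all stages of spider mites were sprayed; % kill determined after 6 days (100% = all mites dead, 0% = none).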

Ctenocephalides felis [4] = experiment: Ctenocephalides felis - oral test; format: in vivo; conditions: application rate 100 ppm in citrated cattle blood; after 2 days
How it was run: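 Compound in DMSO diluted into citrated cattle blood, fed through a parafilm membrane to about 20 unfed adult cat fleas. Kill in % scored after 2 days (100% = all dead).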

Phaedon cochleariae = Phaedon cochleariae - spray test; format: in vivo; conditions: larvae on Chinese cabbage leaf discs, after 7 days
How it was run: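 Chinese cabbage leaf discs sprayed with compound formulated in acetone/DMF and water containing 1000 ppm emulsifier; once dry, infested with mustard beetle larvae. Efficacy (% larvae killed) scored after 7 days.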

Lucilia cuprina = Lucilia cuprina test; format: in vivo; conditions: application rate 100 ppm; L1 larvae; after 2 days
How it was run: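 About 20 L1 larvae placed on minced horsemeat treated with compound, formulated in DMSO and diluted with water to test concentration. Kill in % scored after 2 days (100% = all larvae dead, 0% = none).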

Musca domestica = Musca domestica test; format: in vivo; conditions: application rate 100 ppm; adult houseflies; after 2 days
How it was run: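 Percent kill of adult houseflies is recorded 2 days after exposure, where 100% denotes all flies dead and 0% none. Flies (10 per vessel) feed from a sponge carrying sugar solution and the aqueous-diluted DMSO formulation.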

[5] = reversed-phase column (C18), Table I-T3

| Compound | efficacy (Ctenocephalides felis [1]) [%] | efficacy (Rhipicephalus sanguineus) [%] | efficacy (kill) (Amblyomma hebraeum) [%] | efficacy (laying of fertile eggs) [3] [%] | efficacy (Spodoptera frugiperda; application rate 100 g/ha) [%] | efficacy (Tetranychus urticae; application rate 100 g/ha) [%] | efficacy (kill) (Ctenocephalides felis [4]) [%] | efficacy (Phaedon cochleariae; application rate 100 g/ha) [%] | efficacy (laying of fertile eggs) (Boophilus microplus) [%] | efficacy (kill) (Lucilia cuprina) [%] | efficacy (kill) (Musca domestica) [%] | logP^a) [2] | logP^a) [2, 5] | other results |
| --- | --- | --- | --- | --- | --- | --- | --- | --- | --- | --- | --- | --- | --- | --- |
| Cc1cc(C(F)(C(F)(F)F)C(F)(F)F)cc(C)c1-c1cnn(-c2cnc(Cl)c(C(=O)NC3CC3)c2)c1 [I-T4-3, 2-chloro-N-cyclopropyl-5-[4-[2,6-dimethyl-4-[1,2,2,2-tetrafluoro-1-(trifluoromethyl)ethyl]phenyl]pyrazol-1-yl]pyridine-3-carboxamide] | 100 | 100 | 100 | 100 |  |  |  |  |  |  |  |  |  | efficacy (Myzus persicae; application rate 100 g/ha): 90%; logP [2]: 4.4; pest or weed control at 0.02 mg (Boophilus microplus; Rhipicephalus microplus, 168 h, read-out: efficacy (laying of fertile eggs)): 100% |
| Cc1cc(C(F)(C(F)(F)F)C(F)(F)F)cc(C)c1-c1cnn(-c2cnc(Cl)c(C(=O)NC3(C#N)CC3)c2)c1 [I-T4-4] | 100 | 100 | 100 | 100 | 100 | 100 | 100 | 100 | 100 | 100 |  |  |  | logP [2]: 4.3 |
| O=C(NC1CC1)c1cc(-c2cnn(-c3c(Br)cc(C(F)(C(F)(F)F)C(F)(F)F)cc3C(F)(F)F)c2)ccc1Cl [I-T3-148] | 100 | 100 | 100 | 100 | 100 | 90 | 100 | 100 | 100 | 100 | 100 |  |  | logP^a) ([2]; reversed-phase column (C18)): 4.5; log P [2, 5]: 4.5 |
| CCc1cc(C(F)(C(F)(F)F)C(F)(F)F)ccc1-n1cc(-c2cnc(Cl)c(C(=O)NC3CC3)c2)cn1 [I-T3-104] |  | 100 | 100 | 100 |  |  | 100 |  | 100 | 100 | 100 |  |  | efficacy (Spodoptera frugiperda; application rate 500 g/ha): 100%; efficacy (Tetranychus urticae; application rate 500 g/ha): 90%; logP^a) ([2]; reversed-phase column (C18)): 4.2; log P [2, 5]: 4.2; efficacy (Phaedon cochleariae; application rate 500 g/ha): 100% |
| CCc1cc(C(F)(C(F)(F)F)C(F)(F)F)cc(Cl)c1-n1cc(-c2ccc(Cl)c(C(=O)NC3(C#N)CC3)c2)cn1 [I-T3-71] | 100 | 100 | 100 | 100 | 100 | 90 | 100 | 100 | 100 | 100 | 100 | 4.5 | 4.5 |  |
| O=C(NC1CC1)c1cc(-c2cnn(-c3c(F)cc(C(F)(C(F)(F)F)C(F)(F)F)cc3F)c2)ccc1Cl [I-T3-61] | 100 | 100 | 80 | 100 | 100 | 100 | 100 | 100 | 100 | 100 | 100 | 4.0 | 4.0 |  |
| N#CC1(NC(=O)c2cc(-c3cnn(-c4ccc(C(F)(C(F)(F)F)C(F)(F)F)cc4C(F)(F)F)c3)ccc2Cl)CC1 [I-T3-53] |  | 100 | 80 | 100 | 100 | 100 | 100 | 100 | 100 | 100 | 100 | 4.3 | 4.3 | efficacy (Myzus persicae; application rate 100 g/ha): 90% |
| CCc1cc(C(F)(C(F)(F)F)C(F)(F)F)cc(C)c1-n1cc(-c2ccc(Cl)c(C(=O)NC3CC3)c2)cn1 [I-T3-44] | 100 | 100 | 100 | 100 |  |  | 100 |  | 100 | 100 |  | 4.7 | 4.7 | efficacy (Spodoptera frugiperda; application rate 500 g/ha): 100%; efficacy (Myzus persicae; application rate 500 g/ha): 100%; efficacy (Tetranychus urticae; application rate 500 g/ha): 100%; efficacy (Phaedon cochleariae; application rate 500 g/ha): 100% |
| O=C(NC1CC1)c1cc(-c2cnn(-c3c(Cl)cc(C(F)(C(F)(F)F)C(F)(F)F)cc3C(F)(F)F)c2)ccc1Cl [I-T3-56] | 100 | 100 | 100 | 100 | 100 | 100 | 100 | 100 | 100 | 100 | 100 | 4.4 | 4.4 |  |
| Cc1cc(C(F)(C(F)(F)F)C(F)(F)F)cc(C)c1-n1cc(-c2ccc(Cl)c(C(=O)NC3CC3)c2)cn1 [I-T3-1] | 100 | 100 | 100 | 100 | 100 | 100 | 100 | 100 | 100 | 100 | 100 | 4.4 | 4.4 |  |
| Cc1cc(C(F)(C(F)(F)F)C(F)(F)F)cc(Cl)c1-n1cc(-c2ccc(Cl)c(C(=O)NC3CC3)c2)cn1 [I-T3-63] | 100 | 100 | 100 | 100 | 100 | 100 | 100 | 100 | 100 | 100 | 100 | 4.4 | 4.4 |  |
| N#CC1(NC(=O)c2cc(-c3cnn(-c4c(Br)cc(C(F)(C(F)(F)F)C(F)(F)F)cc4C(F)(F)F)c3)ccc2Cl)CC1 [I-T3-155] | 100 | 100 | 100 | 100 | 100 | 100 | 100 | 100 | 100 | 100 | 100 |  |  | logP^a) ([2]; reversed-phase column (C18)): 4.4; log P [2, 5]: 4.4 |

Reference: US10150737B2, “Compounds for controlling arthropods” (priority 2013, dated 2018)
